Patent US20240294519A1, “PYRROLO[2,3-b]PYRIDINE PGDH INHIBITORS AND METHODS OF MAKING AND USING” (EPIRIUM BIO INC., priority 2021, published 2024)
pIC50: −log10 of the molar value.

Molecular target: T1, 15-PGDH/HPGD (Homo sapiens, UniProt P15428)
T1 construct: purchased R&D System 5660-DH
T1 sequence (P15428 1-266): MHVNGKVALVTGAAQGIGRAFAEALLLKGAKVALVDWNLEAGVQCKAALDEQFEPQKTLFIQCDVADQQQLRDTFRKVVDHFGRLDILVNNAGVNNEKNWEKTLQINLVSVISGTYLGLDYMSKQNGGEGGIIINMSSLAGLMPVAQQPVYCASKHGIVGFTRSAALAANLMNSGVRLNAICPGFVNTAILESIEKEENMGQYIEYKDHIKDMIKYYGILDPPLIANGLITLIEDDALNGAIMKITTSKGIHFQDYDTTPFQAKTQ
Assay: hPGDH inhibitor screening biochemical assay
Conditions: 10 nM enzyme, 15 μM PGE2, 0.25 mM NAD, fluorescence ex/em 340/485 nm
Method: A hydroxyprostaglandin dehydrogenase inhibition screening biochemical assay can be performed to assess the synthesized inhibitors provided herein. Provided herein is an exemplary biochemical assay for hPGDH inhibitor screening.
The in vitro biochemical assay can be performed in white, 384 plates in total 20 μl reaction volume consisting of 10 nM of 15-PGDH/HPGD (R&D System #5660-DH), 15 μM Prostaglandin E2 (Sigma, C8 t #P5640-10 MG) and 0.25 mM β-Nicotinamide adenine dinucleotide sodium salt (Sigma, C8 t #N0632-5G) made in reaction buffer (50 mM Tris-HCl, pH 7.5, 0.01% Tween 20) at 10-point dose response curve for test/tool compounds. Briefly, 5 μl (4×) of compounds solution and 5 μl (final concentration, 10 nM) of enzyme solution is added to white 384 well plates and incubated for 10 mins at 37° C. 5 μl (4×) of […] and 5 μl (4×) of β-Nicotinamide adenine dinucleotide sodium salt is added to the wells and incubated for 10 mins at room temperature. Fluorescence is recorded at ex/em=340 nm/485 nm. The percentage (%) inhibition of enzyme activity was determined relative to positive control (1% DMSO) and IC50 was calculated using GraphPad prism software (four parameter-variable slope equation).

| pIC50 | Compound |
| --- | --- |
| > 7.00 | CC1(O)CCCN(C(=O)c2cnc3c(ccn3-c3ccc(-c4nnc[nH]4)c(Cl)c3)c2)C1 (stereo not drawn) [Compound B-258] |
| 6.00 to 7.00 | O=C(c1cnc2c(ccn2-c2ccc(-c3nnc[nH]3)c(Cl)c2)c1)N1CC[S+]([O-])CC1 [Compound B-261] |
| > 7.00 | O=C(c1cnc2c(ccn2-c2cnn(C3CCOCC3)c2)c1)N1CCC(F)(F)CC1 [Compound B-94] |
| > 7.00 | Cc1cc(-n2ccc3cc(C(=O)N4CCC(F)(F)CC4)cnc32)ccc1-c1nnc[nH]1 [Compound B-255] |
| > 7.00 | O=C(O)c1ccc(-n2ccc3cc(C(=O)N4CC[C@@H](F)C4)cnc32)cc1 [Compound B-6] |
| > 7.00 | N#Cc1ccc(-n2ccc3cc(C(=O)N4CC[C@@H](F)C4)cnc32)cc1 [Compound B-126] |
| > 7.00 | C[C@@H]1CCCN(C(=O)c2cnc3c(ccn3-c3ccc(C#N)cc3)c2)C1 [Compound B-9, (R)-4-(5-(3-methylpiperidine-1-carbonyl)-1H-pyrrolo12,3-b1 pyridin-1-yl)benzonitrile] |
| > 7.00 | C[C@H]1CCCN(C(=O)c2cnc3c(ccn3-c3ccc(-c4nc[nH]n4)cn3)c2)C1 [Compound B-35, (S)-(1-(5-(4H-1,2,4-triazol-3-yl)pyridin-2-yl)-1H-pyrrolo[2,3-b]pyridin-5-yl)(3-methylpiperidin-1-yl)methanone] |
| > 7.00 | O=C(c1cnc2c(ccn2-c2ccc(-c3nnc[nH]3)c(F)c2)c1)N1CC[S+]([O-])CC1 [Compound B-268] |
| > 7.00 | CN(C)c1nnc(-c2ccc(-n3ccc4cc(C(=O)N5CCC(F)(F)CC5)cnc43)cc2)[nH]1 [Compound B-77] |
| > 7.00 | C[C@H]1CCCN(C(=O)c2cnc3c(ccn3-c3ccc4nc(N)nn4c3)c2)C1 [Compound B-29] |
| > 7.00 | O=C(c1cnc2c(ccn2-c2cncc(-c3n[nH]c(C4CC4)n3)c2)c1)N1CCC(F)(F)CC1 [Compound B-1, (1-(5-(5-cyclopropyl-1H-1,2,4-triazol-3-yl)pyridin-3-yl)-1H-pyrrolo [2,3-b]pyridin-5-yl)(4,4-difluoropiperidin-1-yl)methanone] |
| > 7.00 | Cc1nn[nH]c1-c1cncc(-n2ccc3cc(C(=O)N4CCC(F)(F)CC4)cnc32)c1 [Compound B-18, (4,4-difluoropiperidin-1-yl) (1-(5-(4-methyl-1H-1,2,3-triazol-5-yl)pyridin-3-yl)-1H-pyrrolo[2,3-b]pyridin-5-yl)methanone] |
| > 7.00 | O=C(c1cnc2c(ccn2-c2cc(Cl)cc(-c3nnc[nH]3)c2)c1)N1CCC[C@H](O)C1 [Compound B-265] |
| > 7.00 | CN(C)c1nnc(-c2cccc(-n3ccc4cc(C(=O)N5CCC(F)(F)CC5)cnc43)c2)[nH]1 [Compound B-73] |
| > 7.00 | CC(C)(C)Nc1nc(-c2cncc(-n3ccc4cc(C(=O)N5CCC(F)(F)CC5)cnc43)c2)no1 [Compound B-20, (1-(5-(5-(tert-butylamino)-1,2,4-oxadiazol-3-yl)pyridin-3-yl)-1H-pyrrolo[2,3-b]pyridin-5-yl)(4,4-difluoropiperidin-1-yl)methanone] |
| > 7.00 | N#Cc1cc(-n2ccc3cc(C(=O)N4CCC(F)(F)CC4)cnc32)ccc1-c1nnc[nH]1 [Compound B-273] |
| > 7.00 | CCC1CCCN(C(=O)c2cnc3c(ccn3-c3cncc(NC(=O)OC)c3)c2)C1 (stereo in doubt) [Compound B-69, methyl(R)-(5-(5-(3-ethylpiperidine-1-carbonyl)-1H-pyrrolo[2,3-b]pyridin-1-yl)pyridin-3-yl)carbamate] |
| > 7.00 | CC1(O)CCCN(C(=O)c2cnc3c(ccn3-c3ccc(-c4nnc[nH]4)c(F)c3)c2)C1 (stereo not drawn) [Compound B-239] |
| > 7.00 | COc1cc(-c2nnc[nH]2)cc(-n2ccc3cc(C(=O)N4CCC(F)(F)CC4)cnc32)c1 [Compound B-263] |
| > 7.00 | Cc1nnc(-c2cncc(-n3ccc4cc(C(=O)N5CCC(F)(F)CC5)cnc43)c2)[nH]1 [Compound B-22, (4,4-difluoropiperidin-1-yl) (1-(5-(5-methyl-4H-1,2,4-triazol-3-yl)pyridin-3-yl)-1H-pyrrolo[2,3-b]pyridine-5-yl) methanone] |
